Assay results taken from ChEMBL document CHEMBL1124159, “Synthesis and structure-activity relationships of 2-sulfonamido-1,3,4,6,7,11b alpha-hexahydro-2H-benzo[a]quinolizines as alpha 2-adrenoceptor antagonists” (J Med Chem, 1988).

Experiments:
[1] = molecular target: T1, Adrenergic receptor alpha-1 (Rattus norvegicus, UniProt P15823+P23944+P43140); test: Antagonistic activity against alpha-1 adrenergic receptor in isolated rat anococcygeus muscle; type: functional, tissue-based
T1 sequence (P15823 whole entry): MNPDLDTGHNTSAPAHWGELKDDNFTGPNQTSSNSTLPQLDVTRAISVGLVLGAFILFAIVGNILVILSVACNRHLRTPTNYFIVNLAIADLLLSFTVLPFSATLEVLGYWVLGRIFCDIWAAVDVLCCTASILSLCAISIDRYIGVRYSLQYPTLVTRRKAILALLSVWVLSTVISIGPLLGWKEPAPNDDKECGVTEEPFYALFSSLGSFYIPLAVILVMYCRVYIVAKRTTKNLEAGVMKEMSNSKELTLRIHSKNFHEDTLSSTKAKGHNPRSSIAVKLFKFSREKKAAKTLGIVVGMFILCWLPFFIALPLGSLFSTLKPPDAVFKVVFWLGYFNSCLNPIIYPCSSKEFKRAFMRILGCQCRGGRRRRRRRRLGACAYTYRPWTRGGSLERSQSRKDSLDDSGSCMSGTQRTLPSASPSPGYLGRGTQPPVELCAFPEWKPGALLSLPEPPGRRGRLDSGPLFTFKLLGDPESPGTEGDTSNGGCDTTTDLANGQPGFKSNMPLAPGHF
T1 sequence (P23944 whole entry): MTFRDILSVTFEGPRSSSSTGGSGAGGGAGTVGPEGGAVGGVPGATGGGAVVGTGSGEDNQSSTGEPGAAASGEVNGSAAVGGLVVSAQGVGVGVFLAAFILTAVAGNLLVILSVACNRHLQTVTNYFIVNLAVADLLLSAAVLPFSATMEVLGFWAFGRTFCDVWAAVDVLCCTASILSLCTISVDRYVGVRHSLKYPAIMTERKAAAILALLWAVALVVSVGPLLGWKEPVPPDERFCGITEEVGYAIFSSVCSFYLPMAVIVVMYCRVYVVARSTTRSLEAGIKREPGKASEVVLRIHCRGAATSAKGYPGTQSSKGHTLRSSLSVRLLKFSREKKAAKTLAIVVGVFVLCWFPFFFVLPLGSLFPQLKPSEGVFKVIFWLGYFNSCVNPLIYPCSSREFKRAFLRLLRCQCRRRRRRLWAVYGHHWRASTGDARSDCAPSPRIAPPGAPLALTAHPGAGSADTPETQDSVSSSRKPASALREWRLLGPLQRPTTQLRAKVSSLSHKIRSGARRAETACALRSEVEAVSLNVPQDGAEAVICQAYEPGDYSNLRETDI
T1 sequence (P43140 whole entry): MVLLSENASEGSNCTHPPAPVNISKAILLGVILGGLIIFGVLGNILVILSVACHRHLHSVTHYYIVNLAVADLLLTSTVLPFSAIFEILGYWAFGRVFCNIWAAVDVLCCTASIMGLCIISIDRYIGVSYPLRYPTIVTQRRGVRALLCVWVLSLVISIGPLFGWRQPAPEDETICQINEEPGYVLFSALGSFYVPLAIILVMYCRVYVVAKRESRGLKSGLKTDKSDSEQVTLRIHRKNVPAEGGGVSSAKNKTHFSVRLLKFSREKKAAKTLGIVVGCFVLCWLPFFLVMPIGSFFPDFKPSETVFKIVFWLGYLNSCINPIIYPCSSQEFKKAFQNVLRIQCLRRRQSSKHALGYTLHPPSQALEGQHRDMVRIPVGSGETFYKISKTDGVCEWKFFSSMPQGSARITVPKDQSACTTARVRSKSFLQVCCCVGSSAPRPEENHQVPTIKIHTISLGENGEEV

[2] = molecular target: T2, Adrenergic receptor alpha-2 (Rattus norvegicus, UniProt P22086+P19328+P22909); test: Antagonistic activity against alpha-2 adrenergic receptor in rat vas deferens; type: functional, tissue-based
T2 sequence (P22086 whole entry): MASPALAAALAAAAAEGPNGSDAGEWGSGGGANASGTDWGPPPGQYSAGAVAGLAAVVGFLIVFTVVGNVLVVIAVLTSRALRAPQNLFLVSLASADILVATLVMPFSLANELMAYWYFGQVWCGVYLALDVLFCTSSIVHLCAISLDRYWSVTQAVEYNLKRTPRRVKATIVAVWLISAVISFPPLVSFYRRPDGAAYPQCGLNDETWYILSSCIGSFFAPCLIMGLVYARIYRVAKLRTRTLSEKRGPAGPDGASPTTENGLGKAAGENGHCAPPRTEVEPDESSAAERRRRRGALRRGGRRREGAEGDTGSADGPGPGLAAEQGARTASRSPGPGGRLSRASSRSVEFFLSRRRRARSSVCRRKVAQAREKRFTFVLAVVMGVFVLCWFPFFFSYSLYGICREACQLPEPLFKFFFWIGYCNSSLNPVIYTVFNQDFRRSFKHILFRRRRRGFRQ
T2 sequence (P19328 whole entry): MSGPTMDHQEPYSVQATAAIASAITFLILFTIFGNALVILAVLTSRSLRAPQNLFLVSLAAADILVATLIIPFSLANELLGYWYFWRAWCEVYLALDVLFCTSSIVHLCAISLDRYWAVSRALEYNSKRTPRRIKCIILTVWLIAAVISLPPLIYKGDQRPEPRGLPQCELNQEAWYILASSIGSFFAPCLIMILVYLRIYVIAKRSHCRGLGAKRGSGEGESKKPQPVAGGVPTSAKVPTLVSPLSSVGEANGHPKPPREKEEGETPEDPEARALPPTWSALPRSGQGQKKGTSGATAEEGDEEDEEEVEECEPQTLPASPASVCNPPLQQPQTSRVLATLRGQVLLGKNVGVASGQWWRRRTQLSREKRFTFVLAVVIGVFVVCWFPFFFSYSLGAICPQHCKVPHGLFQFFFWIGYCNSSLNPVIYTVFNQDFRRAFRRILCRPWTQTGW
T2 sequence (P22909 whole entry): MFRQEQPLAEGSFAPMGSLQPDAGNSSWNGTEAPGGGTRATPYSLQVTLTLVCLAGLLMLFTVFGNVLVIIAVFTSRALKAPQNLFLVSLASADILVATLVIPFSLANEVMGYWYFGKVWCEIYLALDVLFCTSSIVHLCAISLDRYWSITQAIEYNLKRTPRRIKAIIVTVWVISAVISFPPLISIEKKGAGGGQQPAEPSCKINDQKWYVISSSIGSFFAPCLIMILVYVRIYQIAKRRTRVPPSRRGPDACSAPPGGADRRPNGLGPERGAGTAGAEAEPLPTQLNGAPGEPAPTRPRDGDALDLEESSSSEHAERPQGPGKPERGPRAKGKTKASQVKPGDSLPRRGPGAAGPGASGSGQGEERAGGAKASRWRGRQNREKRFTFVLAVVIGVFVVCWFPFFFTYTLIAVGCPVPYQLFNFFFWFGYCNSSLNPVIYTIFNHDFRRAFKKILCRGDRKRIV

Row | Compound | pA2 [1] | pA2 [2]
1 | CN([C@@H]1CCN2CCc3ccccc3[C@@H]2C1)S(=O)(=O)c1ccccc1 | 7.05 | 8.44
2 | Cc1ccccc1S(=O)(=O)N(C)[C@@H]1CCN2CCc3ccccc3[C@@H]2C1 | 6.27 | 7.87
3 | CN([C@@H]1CCN2CCc3ccccc3[C@@H]2C1)S(=O)(=O)c1ccc(Cl)cc1 | 6.09 | 7.6
4 | COc1ccc(S(=O)(=O)N(C)[C@@H]2CCN3CCc4ccccc4[C@@H]3C2)cc1 | 6.5 | 8.1
5 | CN([C@@H]1CCN2CCc3ccccc3[C@@H]2C1)S(=O)(=O)N1CCCC1 | 6.7 | 8.1
6 | CN([C@@H]1CCN2CCc3ccccc3[C@@H]2C1)S(=O)(=O)c1ccsc1 | 6.65 | 7.94
7 | CC(C)CS(=O)(=O)N[C@@H]1CCN2CCc3ccccc3[C@@H]2C1 | 6.55 | 6.34
8 | CN([C@@H]1CCN2CCc3ccccc3[C@@H]2C1)S(=O)(=O)CC(F)(F)F | 5.93 | 7.56
9 | CN([C@@H]1CCN2CCc3ccccc3[C@@H]2C1)S(=O)(=O)c1cccc2ccccc12 | 7.1 | 8.06
10 | CC(C)COC(=O)N(C)[C@@H]1CCN2CCc3ccccc3[C@@H]2C1 | 7 | –
11 | Cc1ccc(S(=O)(=O)N(C)[C@@H]2CCN3CCc4ccccc4[C@@H]3C2)cc1 | 6.84 | 8.1
12 | CCCCCCCCCCCCS(=O)(=O)N(C)[C@@H]1CCN2CCc3ccccc3[C@@H]2C1 | – | < 5
13 | CCN([C@@H]1CCN2CCc3ccccc3[C@@H]2C1)S(=O)(=O)CC(C)C | 6.65 | 7.61
14 | CN([C@@H]1CCN2CCc3ccccc3[C@@H]2C1)S(=O)(=O)c1cccc2cccnc12 | 6.84 | 8.46
15 | CN([C@@H]1CCN2CCc3ccccc3[C@@H]2C1)S(=O)(=O)c1cccnc1 | 6.73 | 8.22
16 | COC(=O)N(C)[C@@H]1CCN2CCc3ccccc3[C@@H]2C1 | 6.56 | –
17 | CCOC(=O)N(C)[C@@H]1CCN2CCc3ccccc3[C@@H]2C1 | 6.93 | –
18 | CN([C@@H]1CCN2CCc3ccccc3[C@@H]2C1)S(=O)(=O)CCN1CCCCC1 | 6.11 | 7.5
19 | COP(=O)(OC)N(C)[C@@H]1CCN2CCc3ccccc3[C@@H]2C1 | – | 6.63

Now from value to molecule:

Row | pA2 [1] | pA2 [2] | Compound
20 | 5.2 | < 5 | CC(C)CS(=O)(=O)N(C)[C@H]1CCN2CCc3ccccc3[C@H]2C1
21 | 6.61 | 8.26 | CN([C@@H]1CCN2CCc3ccccc3[C@@H]2C1)S(=O)(=O)CCl
22 | 5.95 | 7.4 | CN(C)S(=O)(=O)N(C)[C@@H]1CCN2CCc3ccccc3[C@@H]2C1
23 | 6.17 | 7.7 | CCS(=O)(=O)N(C)[C@@H]1CCN2CCc3ccccc3[C@@H]2C1
24 | 5.3 | < 5 | CN([C@H]1CCN2CCc3ccccc3[C@H]2C1)S(C)(=O)=O
25 | 6.19 | 7.44 | CNS(=O)(=O)N(C)[C@@H]1CCN2CCc3ccccc3[C@@H]2C1
26 | 6.6 | 7.87 | CCCCS(=O)(=O)N(C)[C@@H]1CCN2CCc3ccccc3[C@@H]2C1
27 | 5.7 | 7.1 | CN([C@@H]1CCN2CCc3ccccc3[C@@H]2C1)S(N)(=O)=O
28 | 5.8 | 7.1 | CCCS(=O)(=O)N(C)[C@H]1CCN2CCc3ccccc3[C@H]2C1
29 | 6.8 | 7.74 | CCCCCS(=O)(=O)N(C)[C@@H]1CCN2CCc3ccccc3[C@@H]2C1
30 | 6.7 | 7.7 | CN([C@@H]1CCN2CCc3ccccc3[C@@H]2C1)S(=O)(=O)CC1CC1
31 | 6.61 | 7.39 | CCN([C@@H]1CCN2CCc3ccccc3[C@@H]2C1)S(C)(=O)=O
32 | 5.49 | 7.15 | CN([C@@H]1CCN2CCc3ccccc3[C@@H]2C1)S(=O)(=O)C(F)(F)F
33 | 6.32 | 7.93 | C=CS(=O)(=O)N(C)[C@@H]1CCN2CCc3ccccc3[C@@H]2C1
34 | 6.5 | 8.11 | CN([C@@H]1CCN2CCc3ccccc3[C@@H]2C1)S(=O)(=O)CC(C)(C)C
35 | – | 5.7 | CN([C@@H]1CCN2CCc3ccccc3C2C1)S(C)(=O)=O (stereo partly drawn)
36 | 5.6 | 7.26 | CN(C)CCS(=O)(=O)N(C)[C@@H]1CCN2CCc3ccccc3[C@@H]2C1
37 | 5.86 | 5.78 | CCCS(=O)(=O)N(C)[C@@H]1CCN2CCc3ccccc3C2C1 (stereo partly drawn)
38 | 6.44 | 6.77 | CCCN([C@@H]1CCN2CCc3ccccc3[C@@H]2C1)S(C)(=O)=O
39 | 6.48 | 8.05 | CN([C@@H]1CCN2CCc3ccccc3[C@@H]2C1)S(C)(=O)=O (stereo in doubt)
40 | 6.04 | 7.81 | CN([C@@H]1CCN2CCc3ccccc3[C@@H]2C1)S(C)(=O)=O (stereo in doubt; 6)
41 | 6.34 | 8.08 | CCCS(=O)(=O)N(C)[C@@H]1CCN2CCc3ccccc3[C@@H]2C1 (stereo in doubt; 10)
42 | 6.49 | 8.16 | CC(C)CS(=O)(=O)N(C)[C@@H]1CCN2CCc3ccccc3[C@@H]2C1 (stereo in doubt; 16)
